Among the data in PubChem BioAssay (NCI) are TGI values, retold here.

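Method: 48-hour compound exposure of cells in 96-well plates, five concentrations, linear interpolation of endpoints. TGI: concentration producing complete growth inhibition.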

Some test systems named below: KM20L2 colon; DMS 273 small cell lung; XF 498 CNS; LXFL 529 NSCLC; DLD-1 colon; HOP-18 NSCLC; DMS 114 small cell lung; SNB-78 CNS; RXF-631 renal.
What all share (test): NCI tumour cell line growth inhibition, 48 h

Consider `C=C(C)C1Cc2c(cc(OC)c3c(=O)c4ccccc4n(C)c23)O1` (stereo unspecified), for which the TGI in the assay with KM20L2 colon, in the assay with DMS 273 small cell lung, with XF 498 CNS, with LXFL 529 NSCLC, in the assay on DLD-1 colon and in the assay on HOP-18 NSCLC was > 100 µM each time. Besides, the TGI in the assay on DMS 114 small cell lung and in the assay with SNB-78 CNS was > 100 µM throughout.

Regarding `CC(=O)n1cc(CC(C)O)c(=O)[nH]c1=O` (stereo unspecified), the TGI with KM20L2 colon, in the assay on RXF-631 renal, in the assay on DMS 273 small cell lung, with XF 498 CNS, with LXFL 529 NSCLC and with DLD-1 colon was > 100 µM each time. The TGI in the assay with HOP-18 NSCLC, in the assay with DMS 114 small cell lung and in the assay with SNB-78 CNS was > 100 µM throughout.

For `C[N+](C)(C)CC(=O)N/N=C/c1oc(-c2cccc([N+](=O)[O-])c2)c(-c2cccc([N+](=O)[O-])c2)c1[N+](=O)[O-]`, the TGI in the assay on KM20L2 colon, in the assay on RXF-631 renal, in the assay on DLD-1 colon and in the assay on DMS 114 small cell lung was > 100 µM each time.

As for `CN(C(=O)C12C3C4C1C1C2C3C41C(=O)N(C)C(C)(C)C)C(C)(C)C` (stereo unspecified), the TGI in the assay with KM20L2 colon, with RXF-631 renal, in the assay with DMS 273 small cell lung, in the assay on XF 498 CNS, in the assay on LXFL 529 NSCLC and with DMS 114 small cell lung was > 50 µM each time. Further, the TGI in the assay on SNB-78 CNS was > 50 µM.

Consider `O=C(O)/C(=C/c1ccccc1[N+](=O)[O-])c1cccs1`, for which the TGI in the assay with KM20L2 colon, in the assay with RXF-631 renal, in the assay with DMS 273 small cell lung, in the assay on XF 498 CNS, in the assay on LXFL 529 NSCLC and with DLD-1 colon was > 100 µM each time. Also, the TGI in the assay with HOP-18 NSCLC and in the assay with SNB-78 CNS was > 100 µM throughout.

Turning to `O=S(=O)(c1ccccc1)n1cnc(CCc2ccccc2)n1`, the TGI in the assay with KM20L2 colon, in the assay with DMS 273 small cell lung, with LXFL 529 NSCLC, in the assay on DLD-1 colon, with HOP-18 NSCLC and with DMS 114 small cell lung was > 100 µM throughout. The TGI in the assay on SNB-78 CNS is > 100 µM.

For the compound `Cc1no[n+]([O-])c1/C=N/NS(=O)(=O)c1ccccc1`, the TGI in the assay on KM20L2 colon, in the assay with LXFL 529 NSCLC, in the assay with DLD-1 colon, with HOP-18 NSCLC and in the assay with DMS 114 small cell lung was > 100 µM in each case.

Take `C=CC(Br)(CBr)CCC(Br)C(C)(C)Br` (stereo unspecified): the TGI in the assay on DMS 273 small cell lung is 22.5 µM; in the assay on LXFL 529 NSCLC it was 27.7 µM; in the assay with DLD-1 colon, 33.4 µM; with HOP-18 NSCLC, 28.9 µM; in the assay with DMS 114 small cell lung, 24.6 µM; with SNB-78 CNS it was 19.6 µM.

Regarding `CCOC(=O)c1ncn2c1[nH]c(=O)c1ccccc12`, the TGI in the assay on KM20L2 colon, with DMS 273 small cell lung, in the assay with XF 498 CNS, in the assay on LXFL 529 NSCLC, with DMS 114 small cell lung and with SNB-78 CNS was > 100 µM in each case.

With `Cc1ccc(S(=O)(=O)C(C#N)c2nc3ccccc3nc2N2CCOCC2)cc1` (stereo unspecified), the TGI with KM20L2 colon was > 100 µM; with DMS 273 small cell lung it was 49.4 µM; in the assay with XF 498 CNS, 81.7 µM; in the assay with LXFL 529 NSCLC it was > 100 µM; in the assay on DLD-1 colon, 93.1 µM; in the assay with DMS 114 small cell lung it was 49.5 µM. Besides, the TGI with SNB-78 CNS came out at 15.9 µM.

Regarding `Cc1ccc(SC2C(C)(C)N(C(C)C)P2(=O)N(C(C)C)C(C)C)cc1` (stereo unspecified), the TGI was > 100 µM with KM20L2 colon; 27.7 µM with DMS 273 small cell lung; > 100 µM in the assay with LXFL 529 NSCLC; > 100 µM with HOP-18 NSCLC; > 100 µM in the assay on SNB-78 CNS.

For `COC(=O)NN/C=C(\C=Nc1ccccc1)[N+](=O)[O-]`, the TGI in the assay on KM20L2 colon, with RXF-631 renal, with DMS 273 small cell lung, in the assay on XF 498 CNS, in the assay on LXFL 529 NSCLC and in the assay on DLD-1 colon was > 100 µM in each case. For the same compound, the TGI with HOP-18 NSCLC and with DMS 114 small cell lung was > 100 µM each time.

Turning to `NC(=O)c1ccccc1NC(=O)C(=O)Nc1n[nH]c(N)n1`, the TGI in the assay with KM20L2 colon, with DMS 273 small cell lung, in the assay on XF 498 CNS, in the assay on LXFL 529 NSCLC, in the assay on DLD-1 colon and in the assay on HOP-18 NSCLC was > 100 µM in each case. Moreover, the TGI in the assay on SNB-78 CNS was > 100 µM.

Turning to `O=C(Cc1nc2ccc(C(=O)c3ccccc3)cc2[nH]c1=O)C(=O)Nc1ccc(C(F)(F)F)cc1[N+](=O)[O-]`, the TGI in the assay on KM20L2 colon, with RXF-631 renal, with DMS 273 small cell lung, in the assay on XF 498 CNS, with LXFL 529 NSCLC and with DLD-1 colon was > 100 µM in each case. Besides, the TGI in the assay with HOP-18 NSCLC and with SNB-78 CNS was > 100 µM throughout.

Consider `OC1=CN=C(C2CC2)Oc2ccccc21`, for which the TGI in the assay with KM20L2 colon, in the assay with DMS 273 small cell lung, with LXFL 529 NSCLC, in the assay on DLD-1 colon, in the assay on DMS 114 small cell lung and in the assay with SNB-78 CNS was > 100 µM each time.
